Source: paper PMC6269914, “In Vitro Evaluation of Novel Inhibitors against the NS2B-NS3 Protease of Dengue Fever Virus Type 4” (Molecules, 2013)

biological target: DENV4 NS2B-NS3pro (Dengue virus type 4, UniProt Q2YHF0, DELINS1442-1474GGGGSGGGG); experiment: In vitro inhibition assay of recombinant NS2B-NS3pro with fluorogenic AMC peptide substrate; type: biochemical, dengue virus type 4 (DENV4); conditions: inhibition activity at 100 μM, 1.65 µM AMC peptide substrate; Table 2
Sequence (Q2YHF0 1475-1660, added parts left off, stated change not applied): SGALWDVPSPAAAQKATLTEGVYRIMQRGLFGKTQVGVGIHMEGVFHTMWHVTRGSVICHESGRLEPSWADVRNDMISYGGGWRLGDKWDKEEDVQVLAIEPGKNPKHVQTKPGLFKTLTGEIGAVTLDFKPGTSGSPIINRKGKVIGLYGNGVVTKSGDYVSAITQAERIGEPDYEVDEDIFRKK

Point of comparison: O=C(O)CCCNc1cc(N2CCCCCC2)c2noc3c2c1C(=O)c1ccccc1-3 [Compound 27, 4-((3-(azepan-1-yl)-6-oxo-6H-anthra[1,9-cd]isoxazol-5-yl)amino)butanoic acid], Inhibition 82.5%. Against it:
- O=C(NCCN1CCCCC1)c1cccc(Nc2ccc(-c3cccc(F)c3)nn2)c1 [Compound 29, 3-((6-(3-fluorophenyl)pyridazin-3-yl)amino)-N-(2-(piperidin-1-yl)ethyl)benzamide] — lower, 66.6%
- Cc1nnc2c(Nc3cccc(C(=O)O)c3)nc3ccc(C(=O)c4ccccc4)cc3n12 [Compound 5, 3-((8-benzoyl-1-methyl-[1,2,4]triazolo[4,3-a]quinoxalin-4-yl)amino)benzoic acid] — lower, 58.8%
- O=S(=O)(c1ccc(-c2csc(N3N=C(c4cccs4)CC3c3ccc(F)cc3)n2)cc1)N1CCCCC1 (centres unmarked) [Compound 12, 2-(5-(4-fluorophenyl)-3-(thiophen-2-yl)-4,5-dihydro-1H-pyrazol-1-yl)-4-(4-(piperidin-1-ylsulfonyl)phenyl)thiazole] — higher, 85.2%

same assay, conditions: primary inhibition assay at a 100 μM concentration of inhibitors; Table S1

Point of comparison: “(5,7-dimethyl-6-(3-methylbenzyl)pyrazolo[1,5-a]pyrimidin-3-yl)(4-(2,5-dimethylphenyl)piperazin-1-yl)methanone [Compound 6]”, “Inhibition Activity” value 8.61%. Against it:
- N-(3-(4-ethylpiperazin-1-yl)propyl)-1-(5-(2-oxopyrrolidin-1-yl)-1,3,4-thiadiazol-2-yl)piperidine-3-carboxamide [Compound 30] — lower, 1.3%
- Cc1nn(-c2ccccc2)c2c1nc(CCC(=O)NCCN1CCN(C)CC1)c(=O)n2C [Compound 24, 3-(3,7-dimethyl-6-oxo-1-phenyl-6,7-dihydro-1H-pyrazolo[3,4-b]pyrazin-5-yl)-N-(2-(4-methylpiperazin-1-yl)ethyl)propanamide] — higher, 29.46%
- 3,3'-(ethane-1,2-diyl)bis(2-(((7-chloro-4-oxo-4H-pyrido[1,2-a]pyrimidin-2-yl)methyl)thio)quinazolin-4(3H)-one) [Compound 35] — higher, 48.66%
- 2-(1-isobutyl-5,5-dimethyl-3-(naphthalen-1-yl)-2-oxoimidazolidin-4-yl)-4-(naphthalen-1-yl)-1,2,4-oxadiazolidine-3,5-dione [Compound 16] — higher, 33.28%
- O=C(O)CCCNc1cc(N2CCCCCC2)c2noc3c2c1C(=O)c1ccccc1-3 [Compound 27, 4-((3-(azepan-1-yl)-6-oxo-6H-anthra[1,9-cd]isoxazol-5-yl)amino)butanoic acid] — higher, 82.53%
- 2-((4aR,5R,5aR,8aR,9S)-2,6,8-trioxo-3,10-diphenyl-2,3,4a,5,5a,6,8a,9,9a,10-decahydro-5,9-methanothiazolo[5',4':5,6]thiopyrano[2,3-f]isoindol-7(8H)-yl)acetic acid [Compound 34] — higher, 39.67%
- N-(1,5-dimethyl-3-oxo-2-phenyl-2,3-dihydro-1H-pyrazol-4-yl)-2-((5,9-dimethyl-[1,2,4]triazolo[4,3-a]quinolin-1-yl)thio)acetamide [Compound 26] — higher, 28.11%
- 5-(5,6-dibromo-1,3-dioxohexahydro-1H-4,7-methanoisoindol-2(3H)-yl)-2-morpholinobenzoic acid [Compound 13] — lower, 5.55%
- O=C1c2ccc(-n3c(=O)c4cc5c(=O)n(-c6ccc7c(c6)C(=O)N(c6ccccc6)C7=O)c(=O)c5cc4c3=O)cc2C(=O)N1c1ccccc1 [Compound 4, 2,6-bis(1,3-dioxo-2-phenylisoindolin-5-yl)pyrrolo[3,4-f]isoindole-1,3,5,7(2H,6H)-tetraone] — lower, 4.64%
- N-(3-(4-cyclohexylpiperazin-1-yl)propyl)-1-(5-(2-oxopyrrolidin-1-yl)-1,3,4-thiadiazol-2-yl)piperidine-3-carboxamide [Compound 23] — higher, 17.71%
- Nc1nonc1-c1nc2ccccc2n1Cc1ccc(Cn2c(-c3nonc3N)nc3ccccc32)cc1 [Compound 25, 4,4'-(1,1'-(1,4-phenylenebis(methylene))bis(1H-benzo[d]imidazole-2,1-diyl))bis(1,2,5-oxadiazol-3-amine)] — higher, 36.45%
- COc1cccc(-n2nc(C(=O)NC3CCCCCC3)c3ccccc3c2=O)c1 [Compound 9, N-cycloheptyl-3-(3-methoxyphenyl)-4-oxo-3,4-dihydrophthalazine-1-carboxamide] — higher, 23.33%
- Cc1cccc(-c2nc3nc(C)cc(Nc4ccc(CC(=O)O)cc4)n3n2)c1 [Compound 15, 2-(4-((5-methyl-2-(m-tolyl)-[1,2,4]triazolo[1,5-a]pyrimidin-7-yl)amino)phenyl)acetic acid] — higher, 17.36%
- Cc1nc2sc(C(=O)c3ccc(-c4ccc(C(=O)c5sc6nc(C)c(C)c(C)c6c5N)cc4)cc3)c(N)c2c(C)c1C [Compound 10, [1,1'-biphenyl]-4,4'-diylbis((3-amino-4,5,6-trimethylthieno[2,3-b]pyridin-2-yl)methanone)] — lower, 7.59%
- N2,N2-dimethyl-6-(((4-methyl-5-((2-methyl-5-nitro-1H-imidazol-1-yl)methyl)-4H-1,2,4-triazol-3-yl)thio)methyl)-1,3,5-triazine-2,4-diamine [Compound 31] — lower, 6.49%
- O=C(Nc1ccc(Br)cc1C(=O)c1ccccc1)c1cccc(Nc2nc(-c3ccccc3)c3cc(Br)ccc3n2)c1 [Compound 7, N-(2-benzoyl-4-bromophenyl)-3-((6-bromo-4-phenylquinazolin-2-yl)amino)benzamide] — higher, 21.31%
- O=C(NCCN1CCCCC1)c1cccc(Nc2ccc(-c3cccc(F)c3)nn2)c1 [Compound 29, 3-((6-(3-fluorophenyl)pyridazin-3-yl)amino)-N-(2-(piperidin-1-yl)ethyl)benzamide] — higher, 66.55%
- N-(1-benzyl-1H-benzo[d]imidazol-2-yl)-5-((3-nitro-1H-1,2,4-triazol-1-yl)methyl)furan-2-carboxamide [Compound 32] — higher, 45.55%
- C(=C\CSc1nnc(-c2ccccc2)c(-c2ccccc2)n1)/CSc1nnc(-c2ccccc2)c(-c2ccccc2)n1 [Compound 33, (E)-1,4-bis((5,6-diphenyl-1,2,4-triazin-3-yl)thio)but-2-ene] — higher, 40.52%
- 1-(5-(4-(4-(5-chloro-2-methylphenyl)piperazine-1-carbonyl)piperidin-1-yl)-1,3,4-thiadiazol-2-yl)pyrrolidin-2-one [Compound 18] — lower, 0.15%
- Cc1nnc2c(Nc3cccc(C(=O)O)c3)nc3ccc(C(=O)c4ccccc4)cc3n12 [Compound 5, 3-((8-benzoyl-1-methyl-[1,2,4]triazolo[4,3-a]quinoxalin-4-yl)amino)benzoic acid] — higher, 58.83%
- N-(3-(piperidin-1-yl)propyl)-1-(6-(p-tolyl)imidazo[2,1-b][1,3,4]thiadiazol-2-yl)piperidine-3-carboxamide [Compound 8] — higher, 33.48%
- 2-(3-fluorophenyl)-7-((2-(3-fluorophenyl)-4-oxo-4H-benzo[d][1,3]oxazin-6-yl)methyl)-4H-benzo[d][1,3]oxazin-4-one [Compound 36] — higher, 34.33%
- O=S(=O)(c1ccc(-c2csc(N3N=C(c4cccs4)CC3c3ccc(F)cc3)n2)cc1)N1CCCCC1 (centres unmarked) [Compound 12, 2-(5-(4-fluorophenyl)-3-(thiophen-2-yl)-4,5-dihydro-1H-pyrazol-1-yl)-4-(4-(piperidin-1-ylsulfonyl)phenyl)thiazole] — higher, 85.17%
- 3-(((1-methyl-1H-tetrazol-5-yl)thio)methyl)-7-(2-(5-methyl-4-nitro-1H-pyrazol-1-yl)acetamido)-8-oxo-5-thia-1-azabicyclo[4.2.0]oct-2-ene-2-carboxylic acid [Compound 17] — higher, 23.01%
- COC(=O)CSc1ncn(-c2nc(N3CCCCC3)nc(N3CCCCC3)n2)n1 [Compound 19, methyl 2-((1-(4,6-di(piperidin-1-yl)-1,3,5-triazin-2-yl)-1H-1,2,4-triazol-3-yl)thio)acetate] — higher, 10.28%
- 1-(4-(2,5-dimethylphenyl)piperazin-1-yl)-4-(10-methylbis([1,2,4]triazolo)[4,3-a:1',5'-c]quinazolin-3-yl)butan-1-one [Compound 3] — lower, 2.61%
